US20100266503A1, “Breast Cancer Methods, Medicaments and Agents” (priority 2007, published 2010)

Tests used:
[1] = test system: notch intracellular domain in MCF-7 cells; assay: Staining for notch intracellular domain expression (surrogate marker for GS activity); type: cell-based; conditions: 48 hours; Gefitinib 15 μM, U0126 10 μM, PD98059 10 μM
Source text: (§1) (A) GS activity as measured by a fluorescent assay in MCF7 breast cancer cell lines and MCF10A normal cell lines, with and without treatment with the ERK1/2 inhibitor U0126. (B) Sections of MCF7 breast cancer cell lines stained for notch intracellular domain expression (as a surrogate marker for GS activity). Shown are sections of cells untreated (NO), and cells treated with oestrogen (E2), faslodex (FAS), Gefitinib (Gef), GSI1, and the ERK1/2 inhibitors U0126 (U) and. PD98059 (PD). (C) Sections of MCF10A normal cell lines stained for notch intracellular domain expression. Shown are sections of cells untreated (NO), and cells treated with Gefitinib (Gef) and PD98059 (PD).
(§2) Cancer and normal cell lines were treated with oestrogen (E2), faslodex (FAS), Gefitinib (Gef 15 μM), GSI1, and the ERK1/2 inhibitors U0126 (U) (10 μM) and PD98059 (PD) (10 μM) for 48 hours and a fluorescent assay performed to measure GS activity. The figures show relative fluorescence therefore the amount of fluorescence in the treated cells relative to the untreated minus background (these figures are corrected for background).

[2] = test system: GS activity in MCF10A normal cell lines; conditions: 10 μM, 48 hours
Source text: as §1, §2

[3] = test system: GS activity in MCF7 breast cancer cell lines
Source text: as §1, §2

[4] = test system: GS Activity in MDA-MB 231 cell line; conditions: 48 h vs vehicle control
Experimental: GS Activity Assay was performed on MDA-MB 231 cell line. Cells were treated with a vehicle control and a U0126 inhibitor for 48 h.

| SMILES | notch intracellular domain expression localized to the nucleus compared to untreated cells [1] | increase in GS activity (relative fluorescence vs untreated) [2] | increase in GS activity (relative fluorescence vs untreated) ([3]; 10 μM, 48 hours) | increase in GS activity ([3]; breast cancer cells, summary statement) [fold] | GS Activity [4] |
| --- | --- | --- | --- | --- | --- |
| C[C@]12CC[C@@H]3c4ccc(O)cc4C[C@@H](CCCCCCCCC[S+]([O-])CCCC(F)(F)C(F)(F)F)[C@H]3[C@@H]1CC[C@@H]2O (some centres unmarked) [Faslodex] | all but the Faslodex appear to increase notch intracellular domain expression | – | – | – | – |
| COc1cc2ncnc(Nc3ccc(F)c(Cl)c3)c2cc1OCCCN1CCOCC1 [Gefitinib] | appear to increase notch intracellular domain expression localized to the nucleus | – | – | – | – |
| COc1cccc(-c2cc(=O)c3ccccc3o2)c1N [PD98059] | appear to increase notch intracellular domain expression localized to the nucleus | – | – | – | – |
| N#CC(=C(/N)Sc1ccccc1N)/C(C#N)=C(\N)Sc1ccccc1N [U0126] | appear to increase notch intracellular domain expression localized to the nucleus | approximately 4 fold | 6-12 fold | 9 | dose dependant increase of GS Activity |
